In brackets after ≈: the same amount, converted by molar mass. Where two headings read alike, the source gives them in different places.
Experiments:
soybean rust [1] = tested on: soybean rust; set-up: Control of soybean rust, crop 2005/06 / Control of soybean rust, crop 2012/13: concentration or dose not given beside the values; conditions: cited from earlier work; for Reduction (%) of control: 2005/06 versus 2012/13 crop; for Control of soybean rust, crop 2005/06 / Control of soybean rust, crop 2012/13: applied preventively; for Control of soybean rust, crop 2005/06: 2005/06 crop; for Control of soybean rust, crop 2012/13: 2012/13 crop
[2] = tested on: Dtr (Drechsiera tritici-repentis); conditions: literature value, cited from earlier work
Drechsiera siccans = test: 50% inhibition of mycelium growth (IC50), five isolates, DMI fungicides; format: cell-based
Procedure: In the 2003 wheat crop for the first time, there was complaint of leaf spot control failure after continuous use of fungicides DMI+QoI, for 20 years. Until that time there were few reports of the sensitivity of the fungus that is causal agent of yellow spot to fungicides (Stoke, 2006; Tonin, 2009; Beard et al, 2009; Patel et al, 2012). The reference concentrations of sensitivity of Dtr to fungicides found in the literature were 0.17 mg/L in average for the epoxiconazole, propiconazole and tebuconazole. […] Comparing these values with the sensitivity of isolates of Brazil proves the reduced sensitivity occurring here (see Table 3).
Average of two experiments.

soybean rust [3] = conditions: 2013/14 crop; cited from earlier work
soybean rust [4] = test: Cooperative tests of fungicides (Embrapa Soybean): soybean rust control over crops, FIGS. 1-6; format: in vivo, Phakopsora pachyrhizi; conditions: from regression equation over crops; starting crop differs per fungicide
Excerpt: An example that reinforces the reported fact is the gradual reduction of tebuconazole control over the crops using it covering the period beginning in 2004/05 to 2013/14 (as FIG. 1).
The results of cooperative tests of fungicides, coordinated by Embrapa Soybean, Londrina, can bring the answer to these questions. The following graphs of FIGS. 2, 3, 4 and 5 show the reduction of rust control by fungicide mixtures traditionally used in soybeans over the past crops.
FIG. 1. Reduced soybean rust control by tebuconazole over […]. (Source: Cooperative tests of fungicides).
FIG. 2. Control Reduction of soybean rust by cyproconazole+azoxystrobin mixture over six crops. (Source: Cooperative tests of fungicides).
FIG. 3. Control Reduction of soybean rust by cyproconazole+picoxystrobin mixture over six crops. (Source: Cooperative tests of fungicides).
FIG. 4. Reduction control of soybean rust by epoxiconazole+pyraclostrobin mixture over six crops. (Source: Cooperative tests of fungicides).
FIG. 5. Average reduction of soybean rust control by mixtures of cyproconazole+azoxystrobin, cyproconazole+picoxystrobin and epoxiconazole+pyraclostrobin over six crops. (Source: Cooperative tests of fungicides).
FIG. 6. Control Reduction of soybean rust for azoxystrobin over six crops. (Source: Cooperative tests of fungicides).

[5] = tested on: Drechsiera tritici-repentis; test: 50% inhibition of spore germination (CI50), five isolates, strobilurin fungicides; format: cell-based; conditions: for Reduction factor of the sensitivity, isolate 01/QTZ: CI50 of sensitivity reference 0.75 mg/L; for Reduction factor of the sensitivity, Average / Reduction factor of the sensitivity, isolate 02/ONX / Reduction factor of the sensitivity, isolate 03/HZT / Reduction factor of the sensitivity, isolate 04/GUA / Reduction factor of the sensitivity, isolate 05/CD: reference 0.75 mg/L
Procedure: However, the highest reduction of sensitivity of the Dtr to fungicides and what better explains the control failure claimed by producers is the CI50 obtained for QoIs fungicides (see Table 4).
Lowercase compare average in the column and capital letters in the line. Average of two experiments.
Taking as Cl50 standard of sensitivity, 0.75 mg/L (Table 4) obtained for pyraclostrobin, it is calculated the reduction factor of the sensitivity of the Dtr to QoIs fungicides (see Table 5).
Cl50 of sensitivity reference of 0.75 mg/L.
When the SRF is close to 1.0 there is no reduction of sensitivity. However, if >1 with different magnitude, it indicates reduced sensitivity of fungi to fungicides. In this case SRF ranged from 1.04 to >53 (see Table 5).

soybean rust [6] = conditions: crop 2010/11, cited from earlier work; for Control (%): evaluated by AUDPC; for Severity (%): untreated control 74.0
soybean rust [7] = test: Field experiments at various locations in Brazil: mancozeb alone or added to commercial mixtures against soybean rust; format: in vivo, Phakopsora pachyrhizi; conditions: mancozeb applied alone
Excerpt: (§1) However, its greatest contribution was proven when added to commercial blends bringing control to values of up to 80%, similar efficiency of mixtures “triazole+strobilurin” at the beginning of its use.
Therefore, the present invention used the same strategy as the solution to recover the original control levels (>80%) and make the useful life of the fungicides longer in controlling the target disease of the invention. This is because, mancozeb, being a multi-site protective fungicide and presenting a broad spectrum of action, will also contribute to the control of other diseases in soybean and also in wheat.
A study was conducted to determine the contribution of the mancozeb addition to mixtures of “strobilurin+triazoles.” The experiments were conducted in the field, in nine different locations, where it was determined the fungi toxicity of mancozeb to soybean rust.
Two doses were tested (1.5 and 2.0 kg/ha) with various numbers of mancozeb applications. The effect of mancozeb (1.5 kg/ha), incorporated into commercial mixtures was also tested.
The experiments were conducted with soybean cultivar Monsoy 9144 RR. Mancozeb formulation 750 WDG (water dispersible granules) was used, commercially available, for application of mancozeb according to Tables 6 and 7.

wheat leaf spots = test: Control of wheat leaf spots by DMI + QoI mixtures with or without mancozeb; format: in vivo, Drechsiera tritici-repentis; conditions: various locations in Brazil
Excerpt: as §1
With the addition of mancozeb, by using the method anti-resistance described in the present invention, the control has been quite improved (33.3% also as shown in Table 8).

[8] = average of five isolates, read-out: IC50 Average
[9] = isolate 01/F30, average of two experiments, read-out: IC50 isolate 01/F30
[10] = isolate 02/RZ, read-out: IC50 isolate 02/RZ
[11] = isolate 03/SF, read-out: IC50 isolate 03/SF
[12] = isolate 04/F52, read-out: IC50 isolate 04/F52
[13] = isolate 05/VQ, read-out: IC50 isolate 05/VQ
[14] = spore germination, average of five isolates
[15] = spore germination, isolate 01/QTZ, average of two experiments
[16] = spore germination, isolate 02/ONX
[17] = spore germination, isolate 03/HZT
[18] = spore germination, isolate 04/GUA
[19] = spore germination, average of five isolates, read-out: CI50 Average
[20] = spore germination, isolate 01/QTZ, average of two experiments, read-out: CI50 isolate 01/QTZ
[21] = spore germination, isolate 02/ONX, read-out: CI50 isolate 02/ONX
[22] = spore germination, isolate 03/HZT, read-out: CI50 isolate 03/HZT
[23] = spore germination, isolate 04/GUA, read-out: CI50 isolate 04/GUA

Compound	IC50 (Drechsiera siccans; [8]) [µg/mL]	IC50 (Drechsiera siccans; [9]) [µg/mL]	IC50 (Drechsiera siccans; [10]) [µg/mL]	IC50 (Drechsiera siccans; [11]) [µg/mL]	IC50 (Drechsiera siccans; [12]) [µg/mL]	IC50 (Drechsiera siccans; [13]) [µg/mL]	Reduction factor of the sensitivity, isolate 01/QTZ ([5]; isolate 01/QTZ)	Reduction factor of the sensitivity, Average ([5]; average of five isolates) [a]	Reduction factor of the sensitivity, isolate 02/ONX ([5]; isolate 02/ONX)	Reduction factor of the sensitivity, isolate 03/HZT ([5]; isolate 03/HZT)	Reduction factor of the sensitivity, isolate 04/GUA ([5]; isolate 04/GUA)	Reduction factor of the sensitivity, isolate 05/CD [5]	other results
Fc1ccc([C@]2(Cn3cncn3)O[C@H]2c2ccccc2Cl)cc1 (racemic) [Epoxiconazole]	0.33 (≈ 1 µM)	0.28 (≈ 0.849 µM)	0.28 (≈ 0.849 µM)	0.4 (≈ 1.21 µM)	0.32 (≈ 0.97 µM)	0.4 (≈ 1.21 µM)							Reduction (%) of control (soybean rust [1]): 50.0%; Control of soybean rust, crop 2005/06 (soybean rust [1]): 80.0%; Control of soybean rust, crop 2012/13 (soybean rust [1]): 40.0%; IC50 (Beard et al) [2]: 0.19 µg/mL (≈ 0.576 µM)
CO/C=C(/C(=O)OC)c1ccccc1Oc1cc(Oc2ccccc2C#N)ncn1 [Azoxystrobin]							A > 53 a	>53	A > 53 a	A > 53 a	A > 53 a	A > 53 a	Control of soybean rust in the 2013/14 (last) crop (soybean rust [3]): 16%; Control efficiency reduced per year (soybean rust [4]): 13.8 % per year; CI50 Average [5, 14]: A > 40 a ^ mg/L; CI50 isolate 01/QTZ [5, 15]: A > 40 a mg/L; CI50 isolate 02/ONX [5, 16]: A > 40 a mg/L; CI50 isolate 03/HZT [5, 17]: A > 40 a mg/L; CI50 isolate 04/GUA [5, 18]: A > 40 a mg/L; CI50 isolate 05/CD ([5]; spore germination): A > 40 a mg/L
CC(C1CC1)C(O)(Cn1cncn1)c1ccc(Cl)cc1 (centres unmarked) [Cyproconazole]	0.37 (≈ 1.27 µM)	0.36 (≈ 1.23 µM)	0.47 (≈ 1.61 µM)	0.32 (≈ 1.1 µM)	0.44 (≈ 1.51 µM)	0.29 (≈ 0.994 µM)							Control (%) (soybean rust [6]): 38%; Severity (%) (soybean rust [6]): 58.1%; Reduction (%) of control (soybean rust [1]): 45.9%; Control of soybean rust, crop 2005/06 (soybean rust [1]): 96.0%; Control of soybean rust, crop 2012/13 (soybean rust [1]): 52.0%
CO/N=C(/C(=O)OC)c1ccccc1COc1ccccc1C [Kresoxim methyl]							A > 53 a	>53	A > 53 a	A > 53 a	A > 53 a	A > 53 a	IC50 [5, 19]: > 40 µg/mL; IC50 [5, 20]: > 40 µg/mL; IC50 [5, 21]: > 40 µg/mL; IC50 [5, 22]: > 40 µg/mL; IC50 [5, 23]: > 40 µg/mL
CO/C=C(/C(=O)OC)c1ccccc1COc1cccc(C(F)(F)F)n1 [Picoxystrobin]							A > 53a	>53	A > 53 a	A > 53 a	A > 53 a	A > 53 a	CI50 Average [5, 14]: >40 a mg/L; CI50 isolate 01/QTZ [5, 15]: A > 40 a mg/L; CI50 isolate 02/ONX [5, 16]: A > 40 a mg/L; CI50 isolate 03/HZT [5, 17]: A > 40 a mg/L; CI50 isolate 04/GUA [5, 18]: A > 40 a mg/L; CI50 isolate 05/CD ([5]; spore germination): A > 40 a mg/L
CCCC1COC(Cn2cncn2)(c2ccc(Cl)cc2Cl)O1 (centres unmarked) [Propiconazole]	0.34 (≈ 0.993 µM)	0.32 (≈ 0.935 µM)	0.51 (≈ 1.49 µM)	0.3 (≈ 0.877 µM)	0.3 (≈ 0.877 µM)	0.3 (≈ 0.877 µM)							IC50 (Hunger & Brown) [2]: 0.04 µg/mL (≈ 0.117 µM)
OC(Cc1ccccc1Cl)(Cn1nc[nH]c1=S)C1(Cl)CC1 (centres unmarked) [Prothioconazole]	0.21 (≈ 0.61 µM)	0.22 (≈ 0.639 µM)	< 0.1	0.26 (≈ 0.755 µM)	0.25 (≈ 0.726 µM)	0.14 (≈ 0.407 µM)							
COC(=O)N(OC)c1ccccc1COc1ccn(-c2ccc(Cl)cc2)n1 [Pyraclostrobin]							D 1.0 b		B 1.13 b	C 1.04 b	E 0.77 b	A 1.37 b	IC50 ([5]; read-out: CI50 isolate 05/CD): 1.03 µg/mL (≈ 2.66 µM); IC50 [5, 19]: 0.8 µg/mL (≈ 2.06 µM); IC50 [5, 20]: 0.75 µg/mL (≈ 1.93 µM); IC50 [5, 21]: 0.85 µg/mL (≈ 2.19 µM); IC50 [5, 22]: 0.78 µg/mL (≈ 2.01 µM); IC50 [5, 23]: 0.58 µg/mL (≈ 1.5 µM); IC50 ([5]; taken from Table 4 as sensitivity reference, read-out: CI50 standard of sensitivity): 0.75 µg/mL (≈ 1.93 µM)
CC(C)(C)C(O)(CCc1ccc(Cl)cc1)Cn1cncn1 (centres unmarked) [Tebuconazole]	0.57 (≈ 1.85 µM)	0.66 (≈ 2.14 µM)	0.49 (≈ 1.59 µM)	0.65 (≈ 2.11 µM)	0.61 (≈ 1.98 µM)	0.44 (≈ 1.43 µM)							Control (%) (soybean rust [6]): 42%; Severity (%) (soybean rust [6]): 49.9%; Reduction (%) of control (soybean rust [1]): 32.8%; Control of soybean rust, crop 2005/06 (soybean rust [1]): 95.0%; Control of soybean rust, crop 2012/13 (soybean rust [1]): 64.0%; IC50 (Beard et al) [2]: 0.25 µg/mL (≈ 0.812 µM); IC50 (Hunger & Brown) [2]: 0.19 µg/mL (≈ 0.617 µM); Control efficiency reduced per year (soybean rust [4]): 7.2 % per year
CON=C(C(=O)OC)c1ccccc1CON=C(C)c1cccc(C(F)(F)F)c1 [Trifloxystrobin]							A > 53 a	>53	A > 53 a	A > 53 a	A > 53 a	A > 53 a	IC50 [5, 19]: > 40 µg/mL; IC50 [5, 20]: > 40 µg/mL; IC50 [5, 21]: > 40 µg/mL; IC50 [5, 22]: > 40 µg/mL; IC50 [5, 23]: > 40 µg/mL
manganese ethylene bis(dithiocarbamate)+Zn [mancozeb]													Control of soybean rust, applied alone (soybean rust [7]): showed the efficiency; Control of yellow spot of wheat leaf, applied alone (wheat leaf spots): showed the efficiency

Source: patent publication US11272706B2, “Anti-resistance method” (UPL LIMITED, priority 2017, dated 2022)
